In BindingDB's records for doi:10.1021/jm301022v (F. Hoffmann-La Roche, 2012):

Test: Antagonist activity at LPA1 in human lung fibroblasts assessed as inhibition of LPA-induced contraction after 18 hrs by 3D collagen gel contraction assay

SMILES	IC50
C[C@@H](OC(=O)Nc1c(-c2ccc(C3CCC(CC(=O)O)CC3)cc2)nnn1C)c1ccccc1 (stereo partly drawn)	220 nM
C[C@@H](OC(=O)Nc1c(-c2ccc(-c3ccc(CC(=O)O)cc3)cc2)nnn1C)c1ccccc1	390 nM
Cc1noc(-c2ccc(-c3ccc(CC(=O)O)cc3)cc2)c1NC(=O)O[C@H](C)c1ccccc1	150 nM
Cc1noc(-c2ccc(CSCCC(=O)O)cc2)c1NC(=O)OC(C)c1ccccc1Cl (stereo not drawn) [3-(4-(4-((1-(2-chlorophenyl)ethoxy)carbonylamino)-3-methylisoxazol-5-yl)benzylthio)propanoic acid]	160 nM

Continued, values first:

IC50	SMILES
340 nM	C[C@@H](OC(=O)Nc1c(-c2ccc(-c3ccc(C4(C(=O)O)CC4)cc3)cc2)nnn1C)c1cccc(C(F)(F)F)c1
20 nM	C[C@@H](OC(=O)Nc1c(-c2ccc(-c3ccc(C4(C(=O)O)CC4)cc3)cc2F)nnn1C)c1ccccc1
20 nM	C[C@@H](OC(=O)Nc1c(-c2ccc(-c3ccc(C4(C(=O)O)CC4)cc3)cc2)nnn1C)c1ccccc1
100 nM	Cc1nnn(-c2ccc(-c3ccc(C4(C(=O)O)CC4)cc3)cc2)c1NC(=O)O[C@H](C)c1ccccc1
